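1) Cells in 96-well plates. 2) Compound, 48 h, 5 concentrations. 3) Linear interpolation between surrounding doses. 4) Unreached endpoint = highest concentration. At the GI50, growth is halved. TGI marks complete inhibition of growth.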
What was measured:
Test in all cases: NCI anticancer screen, dose series, 48 h
[1] = test system: HL-60(TB) leukemia
[2] = test system: CCRF-CEM leukemia
[3] = test system: SR leukemia
[4] = test system: K-562 leukemia
[5] = test system: MOLT-4 leukemia
[6] = test system: NCI-H23 lung
[7] = test system: ACHN renal
[8] = test system: HT29 colon
[9] = test system: RPMI-8226 leukemia
[10] = test system: RXF 393 renal
[11] = test system: SK-MEL-2 melanoma
[12] = test system: SK-OV-3 ovarian
[13] = test system: DU-145 prostate
[14] = test system: CAKI-1 renal
[15] = test system: SW-620 colon
[16] = test system: MDA-MB-435
[17] = test system: SK-MEL-28 melanoma
[18] = test system: SNB-75 CNS
[19] = test system: MDA-MB-231 breast
[20] = test system: HOP-92 NSCLC
[21] = test system: A498 renal
[22] = test system: NCI-H460 lung
[23] = test system: SN12C renal
[24] = test system: UACC-62 melanoma
[25] = test system: SF-539 CNS
[26] = test system: SF-295 CNS
[27] = test system: UO-31 renal
[28] = test system: SK-MEL-5 melanoma
[29] = test system: M14 melanoma
[30] = test system: BT-549 breast
[31] = test system: OVCAR-5 ovarian
[32] = test system: IGROV1 ovarian
[33] = test system: SF-268 CNS
[34] = test system: COLO 205 colon
[35] = test system: UACC-257 melanoma
[36] = test system: TK-10 renal
[37] = test system: OVCAR-3 ovarian
[38] = test system: HCC-2998 colon
[39] = test system: U251 CNS
[40] = test system: NCI-H226 lung
[41] = test system: OVCAR-4 ovarian
[42] = test system: LOX IMVI melanoma
[43] = test system: HCT-15 colon
[44] = test system: HCT-116 colon
[45] = test system: NCI/ADR-RES ovarian
[46] = test system: EKVX NSCLC
[47] = test system: HS 578T breast
[48] = test system: HOP-62 NSCLC
[49] = test system: OVCAR-8 ovarian
[50] = test system: PC-3 prostate
[51] = test system: 786-0 renal
[52] = test system: A549 NSCLC
[53] = test system: MALME-3M melanoma
[54] = test system: MCF7 breast
[55] = test system: NCI-H522 lung
[56] = test system: SNB-19 CNS

C(=C\c1n(Cc2ccc3ccccc3c2)c(-c2ccccc2)c(-c2ccccc2)[n+]1Cc1ccc2ccccc2c1)/c1ccccc1
GI50 [1]: 0.2 µM | TGI [1]: 0.635 µM | GI50 [2]: 0.406 µM | TGI [2]: 2.09 µM | GI50 [3]: 0.313 µM | TGI [3]: > 100 µM | GI50 [4]: 0.222 µM | TGI [4]: 5 µM | GI50 [5]: 0.292 µM | TGI [5]: 1.26 µM | GI50 [6]: 0.257 µM | TGI [6]: 0.919 µM | GI50 [7]: 0.239 µM | TGI [7]: 0.591 µM | GI50 [8]: 0.142 µM | TGI [8]: 1.09 µM | GI50 [9]: 0.0758 µM | TGI [9]: 0.621 µM | GI50 [10]: 0.26 µM | TGI [10]: 1.14 µM

N=C(N)c1ccc(-c2ccc(-c3ccc(Cl)cc3Cl)s2)cc1F
GI50 [11]: 2.21 µM | TGI [11]: 5.2 µM | GI50 [12]: 3.05 µM | TGI [12]: 17.5 µM | GI50 [2]: 1.8 µM | TGI [2]: 4.67 µM | GI50 [3]: 1.42 µM | TGI [3]: > 100 µM | GI50 [13]: 1.78 µM | TGI [13]: 3.16 µM | GI50 [14]: 1.63 µM | TGI [14]: 2.99 µM | GI50 [9]: 2.07 µM | TGI [9]: 4.57 µM

NCCCNc1nc2ccccc2c2c(=O)c3cc(C(F)(F)F)ccc3sc12
GI50 [11]: 1.93 µM | TGI [11]: 3.82 µM | GI50 [15]: 1.69 µM | TGI [15]: 3.18 µM | GI50 [16]: 1.65 µM | TGI [16]: 3.06 µM | GI50 [17]: 1.81 µM | TGI [17]: 3.23 µM | GI50 [18]: 1.53 µM | TGI [18]: 2.96 µM | GI50 [13]: 1.82 µM | TGI [13]: 3.26 µM | GI50 [19]: 1.4 µM | TGI [19]: 2.75 µM | GI50 [20]: 1.37 µM | TGI [20]: 2.85 µM | GI50 [21]: 1.73 µM | TGI [21]: 3.23 µM | GI50 [22]: 1.66 µM | TGI [22]: 3.17 µM | GI50 [23]: 1.73 µM | TGI [23]: 3.23 µM | GI50 [24]: 1.68 µM | TGI [24]: 3.09 µM | GI50 [25]: 1.71 µM | TGI [25]: 3.16 µM | GI50 [7]: 1.59 µM | TGI [7]: 2.94 µM | GI50 [26]: 1.8 µM | TGI [26]: 3.21 µM | GI50 [27]: 1.4 µM | TGI [27]: 2.74 µM | GI50 [14]: 1.51 µM | TGI [14]: 2.84 µM | GI50 [28]: 1.7 µM | TGI [28]: 3.07 µM | GI50 [9]: 2.06 µM | TGI [9]: 4.71 µM | GI50 [29]: 1.64 µM | TGI [29]: 3.12 µM | GI50 [10]: 1.38 µM | TGI [10]: 2.72 µM | GI50 [30]: 7.3 µM | TGI [30]: 27.1 µM | GI50 [31]: 1.73 µM | TGI [31]: 3.15 µM

O=C1C(/C=C/c2ccc(Cl)cc2)=NNC2N1N=C1NC(=O)C3(NN12)c1ccccc1-c1ccccc13 (centres undefined)
TGI [32]: > 100 µM | TGI [11]: > 100 µM | TGI [33]: > 100 µM | TGI [1]: > 100 µM | TGI [12]: > 100 µM | TGI [34]: > 100 µM | TGI [35]: > 100 µM | TGI [2]: > 100 µM | TGI [36]: > 100 µM | TGI [37]: > 100 µM | TGI [3]: 60.3 µM | TGI [38]: > 100 µM | TGI [39]: > 100 µM | TGI [40]: > 100 µM | TGI [41]: > 100 µM | TGI [15]: > 100 µM | TGI [42]: > 100 µM | TGI [16]: > 100 µM | TGI [17]: > 100 µM | TGI [18]: > 100 µM | TGI [13]: > 100 µM | TGI [19]: > 100 µM | TGI [43]: > 100 µM | TGI [20]: > 100 µM | TGI [4]: > 100 µM | TGI [44]: > 100 µM | TGI [45]: > 100 µM | TGI [46]: > 100 µM | TGI [47]: > 100 µM | TGI [21]: > 100 µM | TGI [22]: > 100 µM | TGI [48]: > 100 µM | TGI [23]: > 100 µM | TGI [6]: > 100 µM | TGI [49]: > 100 µM | TGI [24]: > 100 µM | TGI [25]: > 100 µM | TGI [7]: > 100 µM | TGI [26]: > 100 µM | TGI [50]: > 100 µM | TGI [27]: > 100 µM | TGI [51]: > 100 µM | TGI [8]: > 100 µM | TGI [14]: > 100 µM | TGI [28]: > 100 µM | TGI [52]: > 100 µM | TGI [29]: > 100 µM | TGI [10]: > 100 µM | TGI [53]: > 100 µM | TGI [30]: > 100 µM | TGI [54]: > 100 µM | TGI [31]: > 100 µM | TGI [55]: > 100 µM | TGI [56]: > 100 µM

C/C=C1\NC(=O)[C@H](Cc2ccccc2)NC(=O)[C@@H](C(C)C)NC(=O)[C@@H]([C@@H](C)CC)NC(=O)[C@H](NC(=O)[C@H](NC(=O)[C@H](CCCN)NC(=O)[C@H]2CCCN2C(=O)[C@H](NC(=O)[C@@H](NC(=O)[C@@H](NC(=O)[C@H](NC(=O)CCCC(C)C)C(C)C)[C@@H](C)O)C(C)C)C(C)C)[C@@H](C)CC)[C@@H](C)OC(=O)[C@H](C(C)C)NC1=O
GI50 [35]: 1.02 µM | TGI [35]: 2.84 µM | TGI [40]: 4.24 µM | TGI [6]: 15.2 µM | TGI [30]: 12 µM

From PubChem BioAssay (NCI)
